{
  "source": "patent US5556744A",
  "about": "“Methods and compositions for diagnosing and treating certain HIV infected patients” (The Trustees of the University of Pennsylvania, priority 1994, dated 1996)",
  "key": {"HIV-IIIB viral isolate": {"test_system": "HIV-IIIB viral isolate", "assay": "Neutralization assay (HIV-IIIB, Hut-78 cells, p24 antigen ELISA)", "type": "cell-based, HIV-1 IIIB", "procedure": "(§1) The H9 cell line (a cutaneous T lymphoma line) infected by HIV-IIIB [ATCC CRL 8543] was used in the neutralization assay. The H9 cell line infected by HIV-MN was used in the anti-syncytial assays. SupT1 and Hut78 cells were used as the target cell lines for the anti-syncytial and neutralization assays. All cell lines were obtained from the National Institutes of Health AIDS Repository (Bethesda, Md.).\nIn a neutralization assay, 20 μl of maternal sera samples was placed in 96 round bottom well plates at final dilutions of 1:10, 1:90 and 1:810 in RPMI. The HIV-IIIB viral isolate was diluted in RPMI to a TCID50 of 100 units/ml. Twenty μl of the virus solution was placed in each well and the plate was incubated for one hour at 4° C. Hut-78 cells were incubated with 2 μg/ml of polybrene for one hour at 37° C. in a CO2 incubator. The HUT-78 cells were washed and resuspended in fresh RPMI to a final concentration of 4×10^6 cells/ml. Ten μl of the cell suspension was added to each well and the plate was incubated for one hour in a 37° C., CO2 incubator.\nFifteen μl of the serum/cell/virus solution was aliquoted to a new plate containing 200 μl of fresh RPMI and incubated for 6 days. After 6 days, 100 μl was used to analyze for p24 antigen. The p24 capture ELISA assay kit (Coulter Corporation, Hialeah, Fla.) was used to perform the measurements.\nFurther, sera samples at the same dilutions as described above were tested for residual p24 core protein or antibody to insure the results were due only to viral infection."}, "[1]": {"test_system": "HIV-1 infected cells (MN isolate)", "assay": "Anti-syncytial assay (inhibition of HIV-1 MN syncytium formation, SupT1 target cells)", "type": "cell-based", "from_the_text": "as §1\nTo analyze the effect of the maternal serum samples on HIV-1 fusion, SupT1 cells were used as target cells in an anti-syncytial assay. Dilutions of the different maternal serum samples were made in 96 well plates in RPMI 1640 media containing 10% fetal calf serum at final dilutions of 1:4, 1:8, 1:16, 1:32, 1:64, 1:128, 1:256 or 1:512. HIV-1 infected cells (MN isolate) were then plated in the wells at a density of approximately 10^4 cells per well. SupT1 target cells were then added at 5×10^5 /well and the number of syncytia are determined after 3 days of incubation. Inhibition of syncytium formation by a serum sample was considered significant if the dilution which yielded a 50% reduction in the number of syncytia when compared to control was greater than 1:32. The average number of syncytia in the control (normal human serum) wells at the above dilutions were: 45.5, 48.5, 44, 48, 48.5, 41.5, 42 and 45.5 respectively."}, "[2]": {"test_system": "maternal serum samples (antibodies)", "assay": "ELISA peptide-binding of maternal sera, expanded peptide collection (Example 5)", "set-up": "species or system human", "in_short": "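Maternal sera diluted 1:50 or 1:500 in 1% BSA/PBS/0.05% Tween 20 were tested by ELISA on 10 μg/mL HIV IIIB gp120/gp41 peptides (~18 residues, ≥85% pure). Binding scored positive at experimental/control OD450nm ratio ≥2; HIV-seronegative human sera served as controls.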"}},
  "data": [
    {"sequence": "CFRPGGGDMRDNWREL [Peptide 466]", "values": [
      {"measurement": "Neutralizing activity of non-transmission sera which reacted with the peptide", "setting": "HIV-IIIB viral isolate; Example 5", "result": "All 3 of these sera exhibited neutralizing activity"},
      {"measurement": "Number of samples which bound the peptide and possessed neutralization activity", "setting": "HIV-IIIB viral isolate; sera which bound the peptide", "result": "all of them"},
      {"measurement": "Antisyncytial activity of non-transmission sera which reacted with the peptide", "setting": "[1]; Example 5", "result": "possessed, to varying degrees, antisyncytial activity"},
      {"measurement": "Number of samples which bound the peptide and possessed anti-syncytial activity", "setting": "[1]; sera which bound the peptide", "result": "all of them"},
      {"measurement": "Number of non-transmission sera that reacted with the peptide", "setting": "[2]; of 13 non-transmission sera", "result": 3}
    ]},
    {"sequence": "TLPCASDAKAYDTEV [Peptide 93]", "values": [
      {"measurement": "Number of samples which bound the peptide and possessed neutralization activity", "setting": "HIV-IIIB viral isolate; sera which bound the peptide", "result": 3},
      {"measurement": "Percent of samples which bound the peptide and possessed neutralization activity", "setting": "HIV-IIIB viral isolate; sera which bound the peptide", "result": 50, "unit": "%"},
      {"measurement": "Number of samples which bound the peptide and possessed anti-syncytial activity", "setting": "[1]; sera which bound the peptide", "result": 6},
      {"measurement": "Percent of samples which bound the peptide and possessed anti-syncytial activity", "setting": "[1]; sera which bound the peptide", "result": 100, "unit": "%"},
      {"measurement": "Binding / reactivity of maternal sera to peptide (in words)", "setting": "[2]; Example 5", "result": "Differences in binding between the transmission and non-transmission groups are noted"}
    ]}
  ]
}
